# Data from patent publication US9133115B2 (ACHILLION PHARMACEUTICALS, INC., priority 2008, dated 2015).
# Test system: HCV replicon
# Assay: HCV replicon replication assay (NPT ELISA) in Huh-7 replicon-containing cells
# Type: cell-based
# Conditions: Hepatitis C virus, 72 h; HCV replicon in Huh-7 cells, three days incubation; read-out: EC50
# Procedure, shortened: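 Replication was scored by capture ELISA of neomycin phosphotransferase, whose level tracks replicon replication, after graded compound treatment. The cells were Huh-7 harbouring an HCV-IRES/neo/EMCV-IRES/NS3–NS5B/3′-NTR replicon, plated at 6000-7500 cells/well and dosed 24 h later at 60-70% confluence; interferon alpha was the positive control.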
row,Compound,EC50 [nM]
1,"C=CC1C[C@]1(NC(=O)[C@@H]1C[C@@H](Oc2cc(-c3ccccc3)nc3cc(OC)ccc23)CN1C(=O)[C@@H](CC(=O)N1CCCC(C(=O)N(CC)CC)C1)C(C)(C)C)C(=O)NS(=O)(=O)C1CC1 (stereo partly drawn) [Compound 159, 1-((S)-3-((2S,4R)-2-((1R,2S)-1-(cyclo-propylsulfonyl-carbamoyl)-2-vinyl-cyclopropyl-carbamoyl)-4-(7-methoxy-2-phenylquinolin-4-yloxy)pyrrolidine-1-carbonyl)-4,4-dimethylpentanoyl)-N,N-diethylpiper-idine-3-carboxamide]",< 1000
2,"C=C[C@@H]1C[C@]1(NC(=O)[C@@H]1C[C@@H](Oc2cc(-c3ccccc3)nc3cc(OC)ccc23)CN1C(=O)[C@@H](CC(=O)N1CCCC[C@H]1c1cccnc1)C(C)(C)C)C(=O)NS(=O)(=O)C1CC1 [Compound 140, (2S,4R)-1-((S)-2-tert-butyl-4-oxo-4-((S)-2-(pyridin-3-yl)piperidin-1-yl)butanoyl)-N-((1R,2S)-1-(cyclo-propylsulfonyl-carbamoyl)-2-vinylcyclopropyl)-4-(7-methoxy-2-phenylquinolin-4-yloxy)pyrrolidine-2-carboxamide]",< 1000
3,"C=C[C@@H]1C[C@]1(NC(=O)[C@@H]1C[C@@H](Oc2cc(-c3nc(C(C)C)cs3)nc3cc(OC)ccc23)CN1C(=O)[C@@H](CC(=O)N1CCCC(F)(F)C1)C(C)(C)C)C(=O)NS(=O)(=O)C1CC1 [Compound 251, (2S,4R)-1-((S)-2-tert-butyl-4-(3,3-difluoropiperidin-1-yl)-4-oxobutanoyl)-N-((2S)-1-(cyclopropyl-sulfonylcarbamoyl)-2-vinylcyclopropyl)-4-(2-(4-isopropylthiazol-2-yl)-7-methoxyquinolin-4-yloxy)pyrrolidine-2-carboxamide]",< 1000
4,"C=C[C@@H]1C[C@]1(NC(=O)[C@@H]1C[C@@H](Oc2cc(-c3ccccc3)nc3cc(OC)ccc23)CN1C(=O)[C@@H](CC(=O)N1CCN(c2cnccn2)CC1)C(C)(C)C)C(=O)NS(=O)(=O)C1CC1 [Compound 196, (2S,4R)-1-((S)-2-tert-butyl-4-oxo-4-(4-(pyrazin-2-yl)piperazin-1-yl)butanoyl)-N-((1R,2S)-1-(cyclopropyl-sulfonylcarbamoyl)-2-vinylcyclopropyl)-4-(7-methoxy-2-phenylquinolin-4-yloxy)pyrrolidine-2-carboxamide]",< 1000
5,"CC[C@H](NC(=O)[C@@H]1C[C@@H](Oc2cc(-c3ccccc3)nc3cc(OC)ccc23)CN1C(=O)[C@@H](CC(=O)N1CCCCC1)C(C)(C)C)C(=O)NS(=O)(=O)C1CC1 [Compound 109, (2S,4R)-1-((S)-2-tert-butyl-4-oxo-4-(piperidin-1-yl)butanoyl)-N-((S)-1-(cyclopropane-sulfonamido)-1-oxobutan-2-yl)-4-(7-methoxy-2-phenylquinolin-4-yloxy)pyrrolidine-2-carboxamide]",1000 to 10000
6,"C=C[C@@H]1C[C@]1(NC(=O)[C@@H]1C[C@@H](Oc2cc(-c3ccccn3)c3ccc4c(c3n2)CCO4)CN1C(=O)[C@@H](CC(=O)N1CCCCC1)C(C)(C)C)C(=O)NS(=O)(=O)C1CC1 [Compound 150, (2S,4R)-1-((S)-2-tert-butyl-4-oxo-4-(piperidin-1-yl)butanoyl)-N-((1R,2S)-1-(cyclo-propylsulfonyl-carbamoyl)-2-vinylcyclopropyl)-4-(4-(pyridin-2-yl)-8,9-dihydrofuro[2,3-h]quinolin-2-yloxy)pyrrolidine-2-carboxamide]",< 1000
7,"C=C[C@@H]1C[C@]1(NC(=O)[C@@H]1C[C@@H](Oc2cc(-c3csc(NC(C)C)n3)nc3c(C)c(OC)ccc23)CN1C(=O)[C@@H](CC(=O)N1CCC(C(F)(F)F)CC1)C(C)(C)C)C(=O)NS(=O)(=O)C1CC1 [Compound 238, (2S,4R)-1-((S)-2-tert-butyl-4-oxo-4-(4-(trifluoro-methyl)piperidin-1-yl)butanoyl)-N-((2S)-1-(cyclopropyl-sulfonylcarbamoyl)-2-vinylcyclopropyl)-4-(2-(2-(isopropyl-amino)thiazol-4-yl)-7-methoxy-8-methylquinolin-4-yloxy)pyrrolidine-2-carboxamide]",< 1000
8,"C=C[C@@H]1CC1(NC(=O)[C@@H]1C[C@@H](Oc2cc(-c3ccccn3)nc3c(C)c(OC)ccc23)CN1C(=O)[C@@H](CC(=O)N1CCC(C(F)(F)F)CC1)C(C)(C)C)C(=O)NS(=O)(=O)C1CC1 (mixture of isomers) [Compound 249, (2S,4R)-1-((S)-2-tert-butyl-4-oxo-4-(4-(trifluoro-methyl)piperidin-1-yl)butanoyl)-N-((S)-1-(cyclopropyl-sulfonylcarbamoyl)-2-vinylcyclopropyl)-4-(7-methoxy-8-methyl-2-(pyridin-2-yl)quinolin-4-yloxy)pyrrolidine-2-carboxamide]",< 1000
9,"C=CC1C[C@]1(NC(=O)[C@@H]1C[C@@H](Oc2cc(-c3ccccc3)nc3cc(OC)ccc23)CN1C(=O)[C@@H](CC(=O)N1CCCC(C(=O)OCC)C1)C(C)(C)C)C(=O)NS(=O)(=O)C1CC1 (stereo partly drawn) [Compound 160, ethyl 1-((S)-3-((2S,4R)-2-((1R,2S)-1-(cyclopropyl-sulfonylcarbamoyl)-2-vinylcyclopropyl-carbamoyl)-4-(7-methoxy-2-phenylquinolin-4-yloxy)pyrrolidine-1-carbonyl)-4,4-dime-thylpentanoyl)piper-idine-3-carboxylate]",< 1000
10,"C=CC1CC1(NC(=O)C1C[C@@H](Oc2cc(-c3ccccc3)nc3cc(OC)ccc23)CN1C(=O)[C@@H](CC(=O)N1CCCCC1)CC1CCCCC1)C(=O)NS(=O)(=O)C1CC1 (stereo partly drawn) [Compound 54, (4R)-1-((R)-2-(cyclohexylmethyl)-4-oxo-4-(piperidin-1-yl)butanoyl)-N-(1-(cyclopropyl-sulfonylcarbamoyl)-2-vinylcyclopropyl)-4-(7-methoxy-2-phenylquinolin-4-yloxy)pyrrolidine-2-carboxamide]",< 1000
11,"C=C[C@@H]1C[C@]1(NC(=O)[C@@H]1C[C@@H](Oc2cc(-c3ccccc3)nc3cc(OC)ccc23)CN1C(=O)[C@@H](CC(=O)N1CCC[C@H]1C(=O)N(C)C)C(C)(C)C)C(=O)NS(=O)(=O)C1CC1 [Compound 88, (2S,4R)-1-((S)-2-tert-butyl-4-((S)-2-(dimethylcarbamo-yl)pyrrolidin-1-yl)-4-oxobutanoyl)-N-((1R,2S)-1-(cyclopropylsulfonyl-carbamoyl)-2-vinylcyclopropyl)-4-(7-methoxy-2-phenylquinolin-4-yloxy)pyrrolidine-2-carboxamide]",< 1000
12,C=C[C@@H]1C[C@]1(NC(=O)[C@@H]1C[C@@H](Oc2cc(-c3ccccc3)nc3cc(OC)ccc23)CN1C(=O)[C@@H](CC(=O)N1CCC[C@H](NC(=O)OC(C)(C)C)C1)C(C)(C)C)C(=O)NS(=O)(=O)C1CC1 [Compound 167],< 1000
13,"C=C[C@@H]1C[C@]1(NC(=O)[C@@H]1C[C@@H](Oc2cc(-c3ccccc3)nc3cc(OC)ccc23)CN1C(=O)[C@@H](CC(=O)N1CCCCC1)C(C)(C)C)C(=O)NS(=O)(=O)C1(CCC)CC1 [Compound 146, (2S,4R)-1-((S)-2-tert-butyl-4-oxo-4-(piperidin-1-yl)butanoyl)-4-(7-methoxy-2-phenylquinolin-4-yloxy)-N-((1R,2S)-1-(1-propylcyclo-propylsulfonyl-carbamoyl)-2-vinyl-cyclopropyl)pyr-rolidine-2-carboxamide]",< 1000
14,"C=C[C@@H]1C[C@]1(NC(=O)[C@@H]1C[C@@H](Oc2cc(-c3ccccc3)nc3cc(OC)ccc23)CN1C(=O)[C@@H](CC(=O)N1C(C(=O)O)CC2CCCCC21)C(C)(C)C)C(=O)NS(=O)(=O)C1CC1 (stereo partly drawn) [Compound 142, 1-((S)-3-((2S,4R)-2-((1R,2S)-1-(cyclo-propylsulfonyl-carbamoyl)-2-vinyl-cyclopropyl-carbamoyl)-4-(7-methoxy-2-phenylquinolin-4-yloxy)pyrrolidine-1-carbonyl)-4,4-dimethylpentano-yl)octahydro-1H-indole-2-carboxylic acid]",< 1000
15,"C=CC1CC1(NC(=O)[C@@H]1C[C@@H](Oc2cc(-c3ccccc3)nc3cc(OC)ccc23)CN1C(=O)[C@@H](CC(=O)N1CCCC(C)C1)C(C)(C)C)C(=O)NS(=O)(=O)C1CC1 (stereo partly drawn) [Compound 44, (2S,4R)-1-((2S)-2-tert-butyl-4-(3-methylpiperidin-1-yl)-4-oxobutanoyl)-N-(1-(cyclopropyl-sulfonyl-carbamoyl)-2-vinylcyclopropyl)-4-(7-methoxy-2-phenylquinolin-4-yloxy)pyrrolidine-2-carboxamide]",1000 to 10000
16,"C=C[C@@H]1C[C@]1(NC(=O)[C@@H]1C[C@@H](Oc2cc(-c3ccccn3)nc3c(Cl)c(OC)ccc23)CN1C(=O)[C@@H](CC(=O)N1CCC(F)(F)CC1)C(C)(C)C)C(=O)NS(=O)(=O)C1CC1 [Compound 194, (2S,4R)-1-((S)-2-tert-butyl-4-(4,4-difluoropiperidin-1-yl)-4-oxobutanoyl)-4-(8-chloro-7-methoxy-2-(pyridin-2-yl)quinolin-4-yloxy)-N-((1R)-1-(cyclopropyl-sulfonylcarbamoyl)-2-vinyl-cyclopropyl)pyr-rolidine-2-carboxamide]",< 1000
17,"C=C[C@@H]1C[C@]1(NC(=O)[C@@H]1C[C@@H](Oc2cc(-c3ccccc3)nc3cc(OC)ccc23)CN1C(=O)[C@@H](CC(=O)N1CCCCC1)CC1CC1)C(=O)NS(=O)(=O)C1CC1 [Compound 124, (2S,4R)-1-((R)-2-(cyclopropylmethyl)-4-oxo-4-(piperidin-1-yl)butanoyl)-N-((1R,2S)-1-(cyclopropylsulfonyl-carbamoyl)-2-vinylcyclopropyl)-4-(7-methoxy-2-phenylquinolin-4-yloxy)pyrrolidine-2-carboxamide]",< 1000
18,"C=C[C@@H]1C[C@]1(NC(=O)[C@@H]1C[C@@H](Oc2cc(-c3ccccc3)nc3c(C)c(OC)ccc23)CN1C(=O)[C@@H](CC(=O)N1CCCC(F)(F)C1)C(C)(C)C)C(=O)NS(=O)(=O)C1CC1 [Compound 241, (2S,4R)-1-((S)-2-tert-butyl-4-(3,3-difluoropiperidin-1-yl)-4-oxobutanoyl)-N-((2S)-1-(cyclopropyl-sulfonylcarbamoyl)-2-vinylcyclopropyl)-4-(7-methoxy-8-methyl-2-phenylquinolin-4-yloxy)pyrrolidine-2-carboxamide]",< 1000
